Measurements from patent US8673888B2, “Depsipeptide for therapy of kidney cancer” (The United States of America, represented by the Secretary, …, priority 2002, dated 2014).

How the values were obtained:
[1] = test system: clear cell renal carcinoma; experiment: Antineoplastic response in a patient with clear cell renal carcinoma (RECIST criteria); format: in vivo, human
Method: This patient was a person with a history of clear cell renal carcinoma that was diagnosed in 1996. The patient received a total of 10 doses of FR901228: FR901228 was administered at 9.10 mg/m^2 on day 1 and day 5 of the first cycle (21 days), 9.10 mg/m^2 on day 1 of the second cycle (21 days), 9.10 mg/m^2 on day 1 and day 5 of the third cycle (28 days), 9.10 mg/m^2 on day 1 of the fourth cycle (22 days), 12.70 mg/m^2 on day 1 of the fifth cycle (20 days), 17.8 mg/m^2 on day 1 of the sixth cycle (23 days), 17.8 mg/m^2 on day 1 of the seventh cycle (23 days) and 17.8 mg/m^2 on day 1 of the eighth cycle (21 days) by continuous infusion for 4 hours. The treatment effect was evaluated based on the RECIST criteria.

[2] = test system: human kidney tumor (RXF-631L); experiment: Antitumor effect on human renal tumor xenograft (RXF-631L) in nude mice; format: in vivo, mouse; details: RXF-631L s.c. xenograft in nude mice; 3.2 and 1.8 mg/kg i.v. q4d×3; FIG. 1
Method: A recommended amount of FR901228 was weighed, a solvent (10% HCO-60 (Nihon Surfactant Kogyo K.K./saline) was added and the mixture was ultrasonicated for dissolution. The positive control substance, Taxol, was dissolved in Cremophor EL (SIGMA/ethanol (1:1)) to a concentration of 24 mg/mL before test and preserved in refrigerator. When in use, a 9-fold amount of physiological saline was added to dilute the substance to 2.4 mg/mL (solvent component: 5% Cremophor EL-5% ethanol-90% saline).
For the antitumor activity test of the drug, BALB/cANnNCrj-nu/nu mice (female, 6-week-old) were purchased from Charles River Japan (Yokohama, Japan), and after acclimation for more than 1 week, subjected to the test. The mice were reared in an SPF environment, where free access to water and feed was allowed. […]
Fragments (3×3×3 mm) of RXF-631L tumor were subcutaneously implanted into the right flank of BALB/cANnNCrj-nu/nu mice. […] The tumor volume was calculated from the formula: tumor volume (mm^3)=½×L×W^2 where L and W represent the length and width of the tumor mass, respectively.
The administration was started on the day the mice were grouped (Day 0). […] The liquid amount of administration was calculated based on the body weight measured on the day of administration (0.1 mL/10 g body weight).
The tumor size (length, width) and body weight were measured twice a week from Day 0.

## C/C=C1\NC(=O)[C@H]2CSSCC/C=C/[C@H](CC(=O)N[C@H](C(C)C)C(=O)N2)OC(=O)[C@H](C(C)C)NC1=O [FR901228]
[1]; one patient, 9.10 mg/m^2 by 4 h continuous infusion, after the first two cycles
  treatment effect (RECIST criteria): partial response
[1]; same patient, 10 doses of 9.10-17.8 mg/m^2, after cycle 8
  treatment effect (RECIST criteria): disease progression
[2]
  growth of human kidney cancer in vivo (tumor size): suppressed the growth
